Test results taken from ChEMBL document CHEMBL1201862, “PubChem BioAssay data set” (2004).
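Method: 48-hour compound exposure of cells in 96-well plates, five concentrations, linear interpolation of endpoints. GI50 is the concentration that inhibits growth by half.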 Activity calls are given as the source filed them. No stated cut-off is given here; in the data, active = GI50 up to about 1.1 µM and inactive = higher.

Experiments:
Experiment in all cases: inhibition of tumour cell growth, NCI panel, 48 h
CCRF-CEM = tested on: CCRF-CEM
PC-3 = tested on: PC-3
UACC-257 = tested on: UACC-257
SF-268 = tested on: SF-268
786-0 = tested on: 786-0
HL-60 = tested on: HL-60
SK-OV-3 = tested on: SK-OV-3
OVCAR-3 = tested on: OVCAR-3
CAKI-1 = tested on: CAKI-1
A549 = tested on: A549
BT-549 = tested on: BT-549
UO-31 = tested on: UO-31
ACHN = tested on: ACHN
Malme-3M = tested on: Malme-3M
Hs-578T = tested on: Hs-578T
UACC-62 = tested on: UACC-62
TK-10 = tested on: TK-10
SR = tested on: SR
MDA-MB-231 = tested on: MDA-MB-231
A498 = tested on: A498

| SMILES | GI50 (CCRF-CEM) | GI50 (PC-3) | GI50 (UACC-257) | GI50 (SF-268) | GI50 (786-0) | GI50 (HL-60) | GI50 (SK-OV-3) | GI50 (OVCAR-3) | GI50 (CAKI-1) | GI50 (A549) | GI50 (BT-549) | GI50 (UO-31) | GI50 (ACHN) | GI50 (Malme-3M) | GI50 (Hs-578T) | GI50 (UACC-62) | GI50 (TK-10) | GI50 (SR) | GI50 (MDA-MB-231) | GI50 (A498) |
| --- | --- | --- | --- | --- | --- | --- | --- | --- | --- | --- | --- | --- | --- | --- | --- | --- | --- | --- | --- | --- |
| O=C1NC(N2CCCCC2)=N/C1=C\c1ccco1 | > 100 µM (inactive) | > 100 µM (inactive) | > 100 µM (inactive) | > 100 µM (inactive) | > 100 µM (inactive) | > 100 µM (inactive) | > 100 µM (inactive) | > 100 µM (inactive) | > 100 µM (inactive) | > 100 µM (inactive) | > 100 µM (inactive) | > 100 µM (inactive) | > 100 µM (inactive) | > 100 µM (inactive) | > 100 µM (inactive) | > 100 µM (inactive) | > 100 µM (inactive) | > 100 µM (inactive) | > 100 µM (inactive) | – |
| c1ccc(/N=C2\c3ccsc3/C(=N/c3ccccc3)c3ccsc32)cc1 | 2.97 µM (inactive) | 2.16 µM (inactive) | 1.29 µM (inactive) | 2.4 µM (inactive) | 2.75 µM (inactive) | 1.61 µM (inactive) | 6.59 µM (inactive) | 1.92 µM (inactive) | 4.49 µM (inactive) | 2.03 µM (inactive) | 2.07 µM (inactive) | 2.09 µM (inactive) | 1.71 µM (inactive) | 0.344 µM (active) | 2.24 µM (inactive) | 1.84 µM (inactive) | 5.6 µM (inactive) | – | 1.77 µM (inactive) | 8.11 µM (inactive) |
| Cc1ccc(S(=O)(=O)NC(=O)NC(CC(=O)O)C(=O)O)cc1 (stereo not drawn) | > 100 µM (inactive) | > 100 µM (inactive) | > 100 µM (inactive) | > 100 µM (inactive) | > 100 µM (inactive) | > 100 µM (inactive) | > 100 µM (inactive) | – | – | > 100 µM (inactive) | > 100 µM (inactive) | > 100 µM (inactive) | > 100 µM (inactive) | > 100 µM (inactive) | > 100 µM (inactive) | > 100 µM (inactive) | > 100 µM (inactive) | > 100 µM (inactive) | > 100 µM (inactive) | – |
| CC[C@]1(Cc2ccc(OC)c(OC)c2)C=[N+]([O-])O[C@H](OC2CCCC2(c2ccccc2)c2ccccc2)[C@@H]1OC(=O)c1ccccc1 (stereo partly drawn) | 3.27 µM (inactive) | 5.47 µM (inactive) | 14 µM (inactive) | 28.7 µM (inactive) | 6.75 µM (inactive) | 3.21 µM (inactive) | > 47.9 µM (inactive) | 3.15 µM (inactive) | > 100 µM (inactive) | 5.92 µM (inactive) | > 27.1 µM (inactive) | 6.7 µM (inactive) | 7.83 µM (inactive) | – | > 100 µM (inactive) | 8.67 µM (inactive) | – | 3.1 µM (inactive) | > 24.9 µM (inactive) | – |
| N#CC(NC12CC3CC(CC(C3)C1)C2)c1ccc2c(c1)OCO2 (stereo not drawn) | > 100 µM (inactive) | > 100 µM (inactive) | > 100 µM (inactive) | > 100 µM (inactive) | > 100 µM (inactive) | > 100 µM (inactive) | > 100 µM (inactive) | > 100 µM (inactive) | > 100 µM (inactive) | > 100 µM (inactive) | > 100 µM (inactive) | > 100 µM (inactive) | > 100 µM (inactive) | > 100 µM (inactive) | > 100 µM (inactive) | > 100 µM (inactive) | > 100 µM (inactive) | > 100 µM (inactive) | > 100 µM (inactive) | – |
| COc1cc(O)c2c(=O)c3cccc(C)c3[nH]c2c1 | 7.6 µM (inactive) | > 10 µM (inactive) | > 10 µM (inactive) | > 10 µM (inactive) | > 10 µM (inactive) | > 10 µM (inactive) | > 10 µM (inactive) | 9.31 µM (inactive) | > 10 µM (inactive) | > 10 µM (inactive) | > 10 µM (inactive) | – | 7.41 µM (inactive) | > 10 µM (inactive) | > 10 µM (inactive) | > 10 µM (inactive) | > 10 µM (inactive) | – | > 10 µM (inactive) | 9.33 µM (inactive) |
| O=[N+]([O-])c1cc2c([N+](=O)[O-])cccc2o1 | 2.48 µM (inactive) | 12.4 µM (inactive) | 6.93 µM (inactive) | 15.7 µM (inactive) | 2.17 µM (inactive) | – | 16.8 µM (inactive) | 5.01 µM (inactive) | 2.22 µM (inactive) | 30.1 µM (inactive) | 15.7 µM (inactive) | 1.88 µM (inactive) | 3.34 µM (inactive) | 13.6 µM (inactive) | 13.1 µM (inactive) | 13 µM (inactive) | 9.25 µM (inactive) | – | 12.3 µM (inactive) | 22.4 µM (inactive) |
| Cc1ccsc1/C=N/Nc1cc(C)c2ccccc2n1 | 17.1 µM (inactive) | 14.7 µM (inactive) | 6.78 µM (inactive) | 17.6 µM (inactive) | 16.3 µM (inactive) | 12.2 µM (inactive) | 17.3 µM (inactive) | 3.94 µM (inactive) | 16.6 µM (inactive) | 9.55 µM (inactive) | 21 µM (inactive) | 10.4 µM (inactive) | 12.9 µM (inactive) | – | 16.7 µM (inactive) | 12.5 µM (inactive) | 14.7 µM (inactive) | – | 0.637 µM (active) | 10.4 µM (inactive) |
| C=CCCC(CCC=C)(C(=O)O)C(=O)O | > 100 µM (inactive) | > 100 µM (inactive) | > 100 µM (inactive) | > 100 µM (inactive) | > 100 µM (inactive) | > 100 µM (inactive) | – | > 100 µM (inactive) | – | > 100 µM (inactive) | > 100 µM (inactive) | > 100 µM (inactive) | > 100 µM (inactive) | > 100 µM (inactive) | > 100 µM (inactive) | > 100 µM (inactive) | > 100 µM (inactive) | > 100 µM (inactive) | > 100 µM (inactive) | – |
| O=S1(=O)C(c2ccccc2)=C(O)c2ccccc21 | > 100 µM (inactive) | > 100 µM (inactive) | > 100 µM (inactive) | > 100 µM (inactive) | > 100 µM (inactive) | > 100 µM (inactive) | – | > 100 µM (inactive) | – | > 100 µM (inactive) | > 100 µM (inactive) | > 100 µM (inactive) | > 100 µM (inactive) | > 100 µM (inactive) | > 100 µM (inactive) | > 100 µM (inactive) | > 100 µM (inactive) | – | 7.91 µM (inactive) | > 100 µM (inactive) |
| Oc1cc(-c2cccc(OC(F)(F)F)c2)nc2cc3c(cc12)OCO3 | 0.0301 µM (active) | 0.0366 µM (active) | 1.68 µM (inactive) | 2.72 µM (inactive) | 0.0902 µM (active) | 0.0131 µM (active) | 0.282 µM (active) | 0.0547 µM (active) | 0.0885 µM (active) | 0.182 µM (active) | 0.327 µM (active) | 0.174 µM (active) | > 32.7 µM (inactive) | 0.0435 µM (active) | 0.1 µM (active) | 0.123 µM (active) | 5.19 µM (inactive) | – | 0.144 µM (active) | 0.516 µM (active) |
